Data reported in ChEMBL document CHEMBL1148394, “Design, synthesis, and in vitro biological evaluation of small molecule inhibitors of estrogen receptor alpha coactivator binding” (J Med Chem, 2004).

molecular target: Estrogen receptor (Homo sapiens, UniProt Q92731+P03372); assay: Binding affinity towards estrogen receptor was determined; format: protein assay

SMILES	Ki
CC(C)CNC(=O)[C@]1(C)C[C@](C)(C(=O)NCC(C)C)C[C@](C)(C(=O)NCC(C)C)C1	> 1000 µM
CCC(C)CNCCc1ccc2ccc(CCNCC(C)CC)cc2c1 (stereo not drawn)	> 1000 µM
CCCNc1nc(NCCC)nc(NCCC)n1	290 µM
CCCCCCCNc1nc(NCCCCCCC)nc(NCCCCCCC)n1	290 µM
c1ccc2cc(CNc3nc(NCc4ccc5ccccc5c4)nc(NCc4ccc5ccccc5c4)n3)ccc2c1	290 µM
c1ccc(CNc2nc(NCc3ccccc3)nc(NCc3ccccc3)n2)cc1	240 µM
c1ccc(CCc2cc(NCc3ccccc3)nc(NCc3ccccc3)n2)cc1	49 µM
CC(C)CCc1nc(NCC(C)C)nc(NCC(C)C)n1	650 µM
CC(C)CCNCCc1ccc2ccc(CCNCCC(C)C)cc2c1	> 1000 µM

Results, then the compound that gave them:

Ki	SMILES
> 1000 µM	CC(C)CC[C@H]1S[C@@H](CCC(C)C)S[C@@H](CCC(C)C)S1
410 µM	CC(C)CCc1nc(NCC(C)C)nc(N(CC(=O)O)C(C)C)n1
590 µM	CC(C)CNc1nc(NCC(C)C)nc(NCC(C)C)n1
790 µM	CC(C)CCc1nc(NCC(C)C)nc(N(CC(=O)O)CC(C)C)n1
